Laboratory results from patent publication US20050009792A1, “(20S)-1alpha-hydroxy-2-methylene-19-nor-vitamin D3 and its uses” (priority 2003, published 2005).

Experiments:
[1] = biological target: T1, vitamin D pig intestinal nuclear receptor (Sus scrofa, UniProt A3RGC1); conditions: Ostrem et al. J. Biol. Chem. 262, 14164-14171, 1987; cited from earlier work
T1 construct: from tissue; host or cells: pig intestine (nuclear receptor preparation)
T1 sequence (A3RGC1 1-427): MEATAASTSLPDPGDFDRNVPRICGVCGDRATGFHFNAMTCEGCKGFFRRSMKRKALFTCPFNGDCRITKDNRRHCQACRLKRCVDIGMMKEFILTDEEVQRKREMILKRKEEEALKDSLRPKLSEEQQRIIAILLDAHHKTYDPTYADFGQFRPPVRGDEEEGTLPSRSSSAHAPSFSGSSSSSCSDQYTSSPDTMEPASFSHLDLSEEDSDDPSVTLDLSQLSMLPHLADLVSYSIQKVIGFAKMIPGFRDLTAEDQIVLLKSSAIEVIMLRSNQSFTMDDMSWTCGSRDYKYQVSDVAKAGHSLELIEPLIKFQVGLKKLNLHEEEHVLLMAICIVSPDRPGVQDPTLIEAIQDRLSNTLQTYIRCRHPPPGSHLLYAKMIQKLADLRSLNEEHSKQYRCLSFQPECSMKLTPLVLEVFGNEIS

[2] = tested on: intestinal calcium transport; assay: Intestinal calcium transport in rats on low calcium diet; assay type: in vivo, Sprague-Dawley rats; conditions: for Ca transport S/M (mean ± SEM): daily for 7 days, male weanling rats, 0.02% Ca diet
Description: Intestinal calcium transport was carried out as described by Penman et al (Biochemistry 29, 190-196,1990).
(§1) Male, weanling Sprague-Dawley rats were placed on Diet 11 (0.47% Ca) diet+AEK for 11 days, followed by Diet 11 (0.02% Ca)+AEK for 31 days. Dosing (i.p.) began 7 days prior to sacrifice. Doses were given on a daily basis, 24 hours apart. The first 10 cm of the intestine was collected for gut transport studies and serum was collected for bone Ca mobilization analysis.

[3] = tested on: bone calcium mobilization; assay: Serum calcium (bone calcium mobilization) in rats on low calcium diet; assay type: in vivo, Sprague-Dawley rats; conditions: for Serum Ca (mean ± SEM): daily for 7 days, male weanling rats, 0.02% Ca diet
Description: as §1

[4] = biological target: T1, vitamin D pig intestinal nuclear receptor; assay: Competitive binding of [3H]-1,25-(OH)2-D3 to the porcine intestinal vitamin D receptor
Description: FIG. 1 is a graph illustrating the relative activity of (20S)-1α-hydroxy-2-methylene-19-nor-vitamin D3 and 1α,25-dihydroxyvitamin D3 to compete for binding of [^3H]-1,25-(OH)2-D3 to the vitamin D pig intestinal nuclear receptor; and
Competitive binding of the analog to the porcine intestinal receptor was carried out by the method described by Dame et al. (Biochemistry 25, 4523-4534, 1986).

[5] = tested on: HL-60 cells; assay: Differentiation of HL-60 promyelocytes into monocytes; assay type: cell-based; conditions: FIG. 2
Description: FIG. 2 is a graph illustrating the percent HL-60 cell differentiation as a function of the concentration of (20S)-1α-hydroxy-2-methylene-19-nor-vitamin D3 and of 1,25-dihydroxyvitamin D3
The differentiation of HL-60 promyelocytic into monocytes was determined as described by Ostrem et al (J. Biol. Chem. 262, 14164-14171, 1987).

## C=C1/C(=C\C=C2/CCC[C@]3(C)[C@@H]([C@H](C)CCCC(C)C)CC[C@@H]23)C[C@@H](O)C[C@@H]1O [1α-hydroxyvitamin D3]
[1]
  decrease in binding activity resulting from lack of a 25-hydroxyl: 100 fold

## C=C1/C(=C\C=C2/CCC[C@]3(C)[C@@H]([C@H](C)CCCC(C)(C)O)CC[C@@H]23)C[C@@H](O)C[C@@H]1O [1α,25-(OH)2D3, 1α,25-dihydroxyvitamin D3, reference compound]
[2]; 260 pmol/day i.p.
  Ca transport S/M (mean ± SEM): 7.7 ± 0.52
[3]; 260 pmol/day i.p.
  Serum Ca (mean ± SEM): 6.25 ± 0.19

## C=C1[C@H](O)CC(=C/C=C2\CCC[C@@]3(C)C2CCC3[C@@H](C)CCCC(C)C)C[C@H]1O (stereo partly drawn) [(20S)-1α-(OH)-2-methylene-19-nor-D3, (20S)-1α-hydroxy-2-methylene-19-nor-vitamin D3]
[4]; FIG. 1
  ability to bind the vitamin D receptor relative to 1,25-dihydroxyvitamin D3: only a little less activity than 1,25(OH)2D3
[4]; FIG. 1, listed as 2-Methylene-19-nor-(20S)-1α-hydroxyvitamin D3
  ability to bind the vitamin D receptor relative to 1,25-dihydroxyvitamin D3: only one-tenth that of 1,25-dihydroxyvitamin D3
[5]; listed as (20S)-1α-Hydroxy-2-methylene-19-nor-vitamin D3
  potency on HL-60 differentiation relative to 1,25-(OH)2D3: more active than 1,25-(OH)2D3
[5]; listed as (20S)-1α-hydroxy-2-methylene-19-nor-vitamin D3
  potency on HL-60 differentiation relative to 1,25-(OH)2D3: more potent than 1,25-(OH)2D3
[2]; 130 pmol/day i.p.
  Ca transport S/M (mean ± SEM): 10.1 ± 0.68
[2]; 260 pmol/day i.p.
  Ca transport S/M (mean ± SEM): 10.0 ± 0.59
[2]; statement in words on Table 1
  activity in stimulating intestinal calcium transport relative to 1,25-(OH)2D3: higher activity as compared to that of 1,25-(OH)2D3
[3]; 130 pmol/day i.p.
  Serum Ca (mean ± SEM): 9.63 ± 0.12
[3]; 260 pmol/day i.p.
  Serum Ca (mean ± SEM): 12.60 ± 0.54
[3]; statement in words on Table 1
  bone calcium mobilization activity relative to 1,25-(OH)2D3: higher bone calcium mobilization activity, as compared to 1,25-(OH)2D3
